Reference: patent US20220313708A1, “COMBINATION PRODUCT CONTAINING LIMONOID COMPOUND AND SGLT-2 INHIBITOR” (ZHEJIANG YANGSHENGTANG INSTITUTE OF NATURAL MEDICATION CO., …, priority 2019, published 2022)

System: mouse type II diabetes model with pancreatic islet damage and obesity
Experiment: Blood glucose in mouse type II diabetes model with pancreatic islet damage and obesity (STZ + high-fat diet, Example 5, tofogliflozin)
Format: in vivo
Settings: STZ + high-fat diet ICR mice; single agent 0.5 g/kg per day by gavage, two weeks; 1 h after last administration; mean ± SD
Description: In this example, a mouse model of type II diabetes with pancreatic islet damage and obesity was established by multiple modeling ICR mice with a small dose of streptozotocin (STZ), following with continuous high-fat diets (referring to literature: Zhang Jiyuan et al, Study on the effect of three plant extracts on improving glucose and lipid metabolism in type 2 diabetic mice, Food and Machinery, 2016, 32 (12): 142-147). […]
Experimental grouping: 15 male mice were randomly selected as the normal control group, and the remaining mice were subjected to a high-fat diet (high-fat diet formula: cholesterol 1%, egg yolk powder 10%, lard oil 10%, and basic feed 79%, for establishing an obesity mouse model) for consecutive 4 weeks and intraperitoneal injection of STZ at a dose of 35 mg/kg for three consecutive days. After one week, the mice were subject to 24 hours of fasting and water deprivation, their fasting blood glucose was measured, and the mice with a blood glucose level of 15 to 25 mmol/L were selected and undifferentiatedly grouped and used in the experiment, continuously subjected to the high-fat diet, 15 mice in each group, and subjected to blood sampling and detection of indicators after 2 weeks of administration. […]

With CCc1ccc(Cc2ccc3c(c2)[C@]2(OC3)O[C@H](CO)[C@@H](O)[C@H](O)[C@H]2O)cc1 [Tofogliflozin, tofogliflozin] the Blood glucose value was 10.1 ± 2.7 mmol/L.
